# Source: PubChem BioAssay AID212 (DTP/NCI, 2004)
# Where “and” joins values, the source holds several entries; their conditions need not be identical. Equal entries are not always repeated. Records with an inconclusive call do not appear.
# System: BDF1 mice, colon carcinoma 38 sc, T/C %
# Experiment: NCI In Vivo Anticancer Drug Screen. Data for tumor model Colon Carcinoma 38 (subcutaneous) in B6D2F1 (BDF1) mice
# Conditions: higher = larger tumour
# Method in brief: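 Transplantable tumor in mice; compound-treated vs vehicle-dosed controls. Measured survival or tumor size; value = T ÷ C.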
# [1] = endpoint: median tumor weight (est.), dose: 25.0 mg/kg/injection, schedule: Q07DX002 (ip), vehicle: saline
# [2] = endpoint: median tumor weight (est.), dose: 50.0 mg/kg/injection, schedule: Q07DX002 (ip), vehicle: saline
# [3] = endpoint: median tumor weight (est.), dose: 200.0 mg/kg/injection, schedule: Q07DX002 (ip), vehicle: saline
# [4] = endpoint: median tumor weight (est.), dose: 400.0 mg/kg/injection, schedule: Q07DX002 (ip), vehicle: saline
# [5] = endpoint: median tumor weight (est.), dose: 6.25 mg/kg/injection, schedule: Q07DX002 (ip), vehicle: saline with Tween-80
# [6] = endpoint: median tumor weight (est.), dose: 25.0 mg/kg/injection, schedule: Q07DX002 (ip), vehicle: saline with Tween-80
# [7] = endpoint: median tumor weight (est.), dose: 50.0 mg/kg/injection, schedule: Q07DX002 (ip), vehicle: saline with Tween-80
# [8] = endpoint: median tumor weight (est.), dose: 100.0 mg/kg/injection, schedule: Q07DX002 (ip), vehicle: saline with Tween-80
smiles,measurement,setting,value
CN(C)C=O,T/C,[1],45 % of control
same,T/C,[2],83 % of control
same,T/C,[3],89 % of control
same,T/C,[4],89 % of control and 92 % of control
same,T/C,"endpoint: median tumor weight (est.), dose: 800.0 mg/kg/injection, schedule: Q07DX002 (ip), vehicle: saline",115 % of control
COc1cc(O)c2c(O)c3c(c4c2c1[C@]1(C4)C(C)=CCCC1(C)C)[C@H](O)[C@@]1(O)CC(=O)C(C(N)=O)=C(O)[C@@]1(O)C3=O,T/C,[5],92 % of control and 97 % of control
same,T/C,[6],87 % of control and 101 % of control
CC(=O)Nc1ccc(Nc2ccc(C(=C3C=CC(=[N+](C)CCC#N)C=C3)c3ccc(N(C)CCC#N)cc3)cc2)cc1,T/C,[6],77 % of control and 93 % of control
same,T/C,[7],91 % of control
same,T/C,[8],52 % of control
COC1CC(NC(=O)N(CCCl)N=O)C(O)C(CO)O1 (stereo not given),T/C,"endpoint: median tumor weight change, dose: 10.0 mg/kg/injection, schedule: Q04DX003 (oral), vehicle: saline",5 % of control
C=C(C)C1C2CC3(C)C4(CO4)C4OC4C3(O)C1C(=O)O2 (stereo not given),T/C,"endpoint: median tumor weight (est.), dose: 0.38 mg/kg/injection, schedule: Q07DX002 (ip), vehicle: Klucel (hydroxypropylcellulose) (HPC)",81 % of control
same,T/C,"endpoint: median tumor weight (est.), dose: 0.75 mg/kg/injection, schedule: Q07DX002 (ip), vehicle: Klucel (hydroxypropylcellulose) (HPC)",104 % of control
same,T/C,"endpoint: median tumor weight (est.), dose: 1.5 mg/kg/injection, schedule: Q07DX002 (ip), vehicle: Klucel (hydroxypropylcellulose) (HPC)",112 % of control
CC(=O)Oc1ccc[nH]c1=O,T/C,[6],102 % of control
same,T/C,"endpoint: median tumor weight (est.), dose: 25.0 mg/kg/injection, schedule: Q07DX003 (ip), vehicle: saline with Tween-80",101 % of control
same,T/C,[7],77 % of control
same,T/C,"endpoint: median tumor weight (est.), dose: 50.0 mg/kg/injection, schedule: Q07DX003 (ip), vehicle: saline with Tween-80",70 % of control
same,T/C,[8],108 % of control and 92 % of control
same,T/C,"endpoint: median tumor weight (est.), dose: 100.0 mg/kg/injection, schedule: Q07DX003 (ip), vehicle: saline with Tween-80",49 % of control
same,T/C,"endpoint: median tumor weight (est.), dose: 200.0 mg/kg/injection, schedule: Q07DX002 (ip), vehicle: saline with Tween-80",114 % of control
same,T/C,"endpoint: median tumor weight (est.), dose: 200.0 mg/kg/injection, schedule: Q07DX003 (ip), vehicle: saline with Tween-80",114 % of control
same,T/C,"endpoint: median tumor weight (est.), dose: 400.0 mg/kg/injection, schedule: Q07DX003 (ip), vehicle: saline with Tween-80",83 % of control
same,T/C,"endpoint: median tumor weight (est.), dose: 800.0 mg/kg/injection, schedule: Q07DX002 (ip), vehicle: saline with Tween-80",74 % of control and 75 % of control
same,T/C,"endpoint: median tumor weight (est.), dose: 800.0 mg/kg/injection, schedule: Q07DX003 (ip), vehicle: saline with Tween-80",57 % of control
CC1=CC(=NN=c2cc(C)n([O-])c(C)c2)C=C(C)[N+]1=O,T/C,"endpoint: median tumor weight (est.), dose: 12.5 mg/kg/injection, schedule: Q07DX002 (ip), vehicle: saline",82 % of control
same,T/C,[1],108 % of control
same,T/C,"endpoint: median tumor weight (est.), dose: 25.0 mg/kg/injection, schedule: Q07DX002 (ip), vehicle: suspension in saline",123 % of control
same,T/C,[2],73 % of control
same,T/C,"endpoint: median tumor weight (est.), dose: 100.0 mg/kg/injection, schedule: Q07DX002 (ip), vehicle: suspension in saline",97 % of control
same,T/C,[3],99 % of control
same,T/C,"endpoint: median tumor weight (est.), dose: 200.0 mg/kg/injection, schedule: Q07DX002 (ip), vehicle: suspension in saline",121 % of control
same,T/C,[4],90 % of control
same,T/C,"endpoint: median tumor weight (est.), dose: 400.0 mg/kg/injection, schedule: Q07DX002 (ip), vehicle: suspension in saline",98 % of control
CCCCCCCCCCCCN1C(C)=CS/C1=C\C=C\c1scc(C)[n+]1CCCCCCCCCCCC,T/C,"endpoint: median tumor weight (est.), dose: 0.78 mg/kg/injection, schedule: Q07DX002 (ip), vehicle: saline with Tween-80",124 % of control
same,T/C,"endpoint: median tumor weight (est.), dose: 1.56 mg/kg/injection, schedule: Q07DX002 (ip), vehicle: saline with Tween-80",98 % of control
same,T/C,"endpoint: median tumor weight (est.), dose: 3.12 mg/kg/injection, schedule: Q07DX002 (ip), vehicle: saline with Tween-80",79 % of control
same,T/C,[5],88 % of control
same,T/C,"endpoint: median tumor weight (est.), dose: 12.0 mg/kg/injection, schedule: Q07DX002 (ip), vehicle: saline with Tween-80",101 % of control
same,T/C,"endpoint: median tumor weight (est.), dose: 12.5 mg/kg/injection, schedule: Q07DX002 (ip), vehicle: saline with Tween-80",120 % of control
